According to patent publication US20080207760A1, “Pharmaceutical Compositions For and Methods of Inhibiting Hcv” (priority 2005, published 2008):
Entries after “also recorded” stand apart in the source; their conditions may differ.

Legend:
HCV replicon cells = assay: HCV replicon assay (RNA dot blot or NPTII ELISA); format: cell-based
Method: Cells expressing the HCV replicon are seeded onto the internal wells of 96-well plates at a density of 7,000 cells per well. One day later, different dilutions of the test compounds are added to corresponding wells and the plates are incubated in a CO2 incubator for 72 hours. After treatment, the cells are lysed with 70 μl RLN buffer per well (50 mM Tris-HCl [pH8.0], 140 mM NaCl, 1.5 mM MgCl2, 0.5% Nonidet P-40, 1,000 units/mL RNAsin and 1 mM […]). The total lysate is transferred to a new U bottom 96-well plate and nuclei and cell debris are pelleted with a brief spin (300×g for 3 minutes). 50 μl of supernatant is removed from the well and loaded directly onto manifold wells equipped with Nylon membranes. HCV RNA is hybridized at 58° C. overnight using a labeled HCV RNA probe containing a negative strand sequence complement to the NS5B region. Hybridization buffer is composed of 50% formamide, 5×SSPE, 1% SDS, 5× Denhart's solution, and sheared denatured salmon sperm DNA. Following hybridization, the membrane is washed with washing buffer (0.1×SSC, 0.1% SDS) at room temperature for two hours, then at 65° C. for 30 minutes. The radioactivity in each well is counted on a Microbeta counter and EC50 is calculated based on cpm. Alternatively, HCV replicon cells are trypsinized for 5-10 minutes in a CO2 incubator. Then, cells are placed in a 15 mL tube, and are spun at 1000 rpm for 4 minutes and trypsin solution is removed. Cell pellets are washed once with PBS and spun 4 minutes at 1000 rpm.
Trypsinization and wash steps, supra, are conducted efficiently to minimize cell death. PBS is removed and cells are resuspended in 4 mL fresh PBS and cells are seeded at a dilution of 5000 cells per well to 96 well plates. Test compounds are diluted in 96 well U bottom plates with DMEM (high glucose) (BRL, Catalog #21063) supplemented with 10% FBS, L-glutamine, and non-essential amino acid. 100 uL of test compound is loaded into each well. […]
100 uL of development solution (TMB one-step substrate system) is added and plates are developed in the dark for 10 to 30 minutes. […] OD450 is measured. […]

synthetic NS4A [1] = molecular target: T1, synthetic NS4A (Hepatitis C virus genotype 1b, UniProt Q9WMX2); assay: Competition assay with [3H] labeled azidoacylthiourea for NS4A binding; set-up: species or system HCV
T1 construct: The full length of NS4A (54 amino acids) is synthesized; made in house
T1 sequence (Q9WMX2 1658-1711): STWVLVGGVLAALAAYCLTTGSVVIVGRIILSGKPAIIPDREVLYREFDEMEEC
Method: (§1) To determine whether acylthiourea compounds bind to NS4A, a photo-affinity labeling is carried out, in which an [^3H] labeled photo-reactive azidoacylthiourea, 1-(5-Azido-benzofuran-2-carbonyl)-3-(4-pentyloxy-3-trifluoromethyl-phenyl)-thiourea, is mixed with synthetic NS4A at various molar ratios. The mixture is incubated at 31° C. for one hour. Samples are then illuminated by a UV lamp (254 nm wavelength) at room temperature for 7 minutes. After denaturing with equal volume of Laemmli buffer containing 5% mercaptoethanol at 99° C. for 5 minutes, samples are separated on a 10-20% SDS-PAGE. After electrophoresis, the gel is fixed with 30% methanol—10% acetic acid overnight. Then the gel is treated with 3H enhancer solution (PerkinElmer) at room temperature for one hour, and subsequently with water for 30 minutes, and dried under vacuum.
To study the binding specificity of [^3H] labeled 1-(5-Azido-benzofuran-2-carbonyl)-3-(4-pentyloxy-3-trifluoromethyl-phenyl)-thiourea to synthetic NS4A, several structurally related compounds are used in the following competition assays. Non-labeled 1-(5-Azido-benzofuran-2-carbonyl)-3-(4-pentyloxy-3-trifluoromethyl-phenyl)-thiourea shares the same structure with [^3H] labeled 1-(5-Azido-benzofuran-2-carbonyl)-3-(4-pentyloxy-3-trifluoromethyl-phenyl)-thiourea. 1-(5-Azido-benzofuran-2-carbonyl)-3-(4-pentyloxy-3-trifluoromethyl-phenyl)-urea differs in structure from 1-(5-Azido-benzofuran-2-carbonyl)-3-(4-pentyloxy-3-trifluoromethyl-phenyl)-thiourea in that 1-(5-Azido-benzofuran-2-carbonyl)-3-(4-pentyloxy-3-trifluoromethyl-phenyl)-urea has a carbonyl group where 1-(5-Azido-benzofuran-2-carbonyl)-3-(4-pentyloxy-3-trifluoromethyl-phenyl)-thiourea has a thiocarbonyl group. […]

synthetic NS4A [2] = molecular target: T1, synthetic NS4A; assay: Photo-affinity labeling; format: binding, HCV; details: [3H] labeled compound, UV 254 nm, SDS-PAGE
Method: Experiments are undertaken to investigate the affinity and binding specificity of acylthiourea compounds to NS4A. The full length of NS4A (54 amino acids) is synthesized, and characterized with mass spectral analysis and HPLC profiling. An NS4A sample is then dissolved in 100% dimethylsulphoxide (DMSO) at a concentration of 2 μg/μl and subjected to a 10-20% SDS-PAGE with a reducing reagent. A 6 kDa protein band, consistent with the size of NS4A, is detected in the gel following a Coomassie blue staining. The NS4A identity of this band is further confirmed by a Western blot with monoclonal anti-NS4A antibody.
as §1, with “Then the gel is treated with 3H enhancer solution (PerkinElmer) at room temperature for one hour, and subsequently with water for 30 minutes, and dried under vacuum.” left out

full-length NS3 = full-length NS3 (Hepatitis C virus genotype 1b, UniProt Q9WMX2); assay: Photo-affinity labeling; format: binding, HCV; details: [3H] labeled compound; same molar ratio as NS4A (3.3 μM)
full-length NS3, sequence (Q9WMX2 1027-1657): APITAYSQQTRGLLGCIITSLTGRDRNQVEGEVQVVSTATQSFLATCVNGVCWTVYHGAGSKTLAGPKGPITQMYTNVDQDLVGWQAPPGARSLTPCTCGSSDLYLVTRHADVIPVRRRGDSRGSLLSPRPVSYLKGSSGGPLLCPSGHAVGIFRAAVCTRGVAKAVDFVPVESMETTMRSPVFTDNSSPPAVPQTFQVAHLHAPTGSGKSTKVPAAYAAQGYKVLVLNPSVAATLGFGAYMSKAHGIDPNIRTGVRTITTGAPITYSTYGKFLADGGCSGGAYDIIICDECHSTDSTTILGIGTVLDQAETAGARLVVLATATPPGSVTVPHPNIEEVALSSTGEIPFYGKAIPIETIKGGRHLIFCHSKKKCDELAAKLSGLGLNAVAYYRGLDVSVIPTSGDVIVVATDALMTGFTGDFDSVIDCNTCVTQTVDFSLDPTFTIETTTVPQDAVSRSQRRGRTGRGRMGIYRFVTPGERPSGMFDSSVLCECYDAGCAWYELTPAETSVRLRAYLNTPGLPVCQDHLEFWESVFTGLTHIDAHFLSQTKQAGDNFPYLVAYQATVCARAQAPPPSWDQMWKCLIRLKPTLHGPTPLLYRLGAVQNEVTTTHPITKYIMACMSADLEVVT
Method: as §1
(§2) One band corresponds to NS4A monomer, which is also detectable with Coomassie blue staining (FIG. 3). […] Without being bound by any particular theory, it is believed that this band may be composed largely of polymer form or aggregates of NS4A. At the same time, full-length NS3 and NS3 protease domain is included in this binding assay.

NS3 protease domain = NS3 protease domain (Hepatitis C virus genotype 1b, UniProt Q9WMX2); assay: Photo-affinity labeling; format: binding, HCV; details: [3H] labeled compound; same molar ratio as NS4A (3.3 μM)
NS3 protease domain, sequence (Q9WMX2 1027-1208): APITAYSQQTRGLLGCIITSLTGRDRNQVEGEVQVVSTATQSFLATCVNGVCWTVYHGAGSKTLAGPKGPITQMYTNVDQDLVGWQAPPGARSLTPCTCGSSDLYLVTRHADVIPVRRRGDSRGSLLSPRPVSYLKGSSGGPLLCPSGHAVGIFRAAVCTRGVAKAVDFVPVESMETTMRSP
Method: as §1, §2

| SMILES | anti-HCV activity in replicon cells (HCV replicon cells) | competition with [3H] labeled 1-(5-Azido-benzofuran-2-carbonyl)-3-(4-pentyloxy-3-trifluoromethyl-phenyl)-thiourea for NS4A binding (synthetic NS4A [1]) | binding to synthetic NS4A (synthetic NS4A [2]) | binding to full-length NS3 (full-length NS3) | binding to NS3 protease domain (NS3 protease domain) |
| --- | --- | --- | --- | --- | --- |
| CCCCCOc1ccc(NC(=S)NC(=O)c2cc3ccccc3o2)cc1C(F)(F)F [1-(Benzofuran-2-carbonyl)-3-(4-pentyloxy-3-trifluoromethyl-phenyl)-thiourea] | exhibit anti-HCV activities in replicon cells | effectively compete |  |  |  |
| CCCCCOc1ccc(NC(=S)NC(=O)c2cc3cc(N=[N+]=[N-])ccc3o2)cc1C(F)(F)F [1-(5-Azido-benzofuran-2-carbonyl)-3-(4-pentyloxy-3-trifluoromethyl-phenyl)-thiourea] |  |  | binds to synthetic NS4A; also recorded: two radioactive bands are shown in the gel | only weak binding signals | only weak binding signals |
| CCCCCOc1ccc(NC(=O)NC(=O)c2cc3cc(N=[N+]=[N-])ccc3o2)cc1C(F)(F)F [1-(5-Azido-benzofuran-2-carbonyl)-3-(4-pentyloxy-3-trifluoromethyl-phenyl)-urea] | does not exhibit any anti-HCV activity in replicon cells | does not compete; also recorded: appears to abolish this competition capacity |  |  |  |
| CCCCCOc1ccc(NC(=S)NC(=O)c2cccnc2)cc1C(F)(F)F [1-(4-Pentyloxy-3-trifluoromethyl-phenyl)-3-(pyridine-3-carbonyl)-thiourea] | exhibit anti-HCV activities in replicon cells | effectively compete |  |  |  |
